Results from PubChem BioAssay AID248 (DTP/NCI, 2004).
Inconclusive results and toxic doses are left out.

Test system: L1210 leukemia ip in BDF1 mice, survival T/C
Test: NCI In Vivo Anticancer Drug Screen. Data for tumor model L1210 Leukemia (intraperitoneal) in B6D2F1 (BDF1) mice
Details: endpoint: mean survival time, higher = longer survival
Outline: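 Tumor cells were implanted, animals were treated, and survival was followed. The result divides the treated measurement by the vehicle-control measurement.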

[1] = dose: 100.0 mg/kg/injection, schedule: Q01DX009 (ip), vehicle: Klucel (hydroxypropylcellulose) (HPC)
[2] = dose: 100.0 mg/kg/injection, schedule: Q04DX003 (ip), vehicle: Klucel (hydroxypropylcellulose) (HPC)
[3] = dose: 200.0 mg/kg/injection, schedule: Q01DX009 (ip), vehicle: Klucel (hydroxypropylcellulose) (HPC)
[4] = dose: 200.0 mg/kg/injection, schedule: Q04DX003 (ip), vehicle: Klucel (hydroxypropylcellulose) (HPC)
[5] = dose: 400.0 mg/kg/injection, schedule: Q04DX003 (ip), vehicle: Klucel (hydroxypropylcellulose) (HPC)
[6] = dose: 100.0 mg/kg/injection, schedule: Q04DX002 (ip), vehicle: Klucel (hydroxypropylcellulose) (HPC)
[7] = dose: 200.0 mg/kg/injection, schedule: Q04DX002 (ip), vehicle: Klucel (hydroxypropylcellulose) (HPC)
[8] = dose: 400.0 mg/kg/injection, schedule: Q04DX002 (ip), vehicle: Klucel (hydroxypropylcellulose) (HPC)
[9] = dose: 100.0 mg/kg/injection, schedule: Q04DX003 (ip), vehicle: saline
[10] = dose: 200.0 mg/kg/injection, schedule: Q04DX003 (ip), vehicle: saline
[11] = dose: 400.0 mg/kg/injection, schedule: Q04DX003 (ip), vehicle: saline
[12] = dose: 100.0 mg/kg/injection, schedule: Q01DX009 (ip), vehicle: saline
[13] = dose: 200.0 mg/kg/injection, schedule: Q01DX009 (ip), vehicle: saline
[14] = dose: 400.0 mg/kg/injection, schedule: Q01DX009 (ip), vehicle: saline
[15] = dose: 100.0 mg/kg/injection, schedule: Q01DX001 (ip), vehicle: carboxymethylcellulose (CMC)
[16] = dose: 200.0 mg/kg/injection, schedule: Q01DX001 (ip), vehicle: carboxymethylcellulose (CMC)
[17] = dose: 100.0 mg/kg/injection, schedule: Q04DX003 (ip), vehicle: saline with Tween-80
[18] = dose: 200.0 mg/kg/injection, schedule: Q04DX003 (ip), vehicle: saline with Tween-80
[19] = dose: 400.0 mg/kg/injection, schedule: Q04DX003 (ip), vehicle: saline with Tween-80
[20] = dose: 400.0 mg/kg/injection, schedule: Q01DX009 (ip), vehicle: Klucel (hydroxypropylcellulose) (HPC)
[21] = dose: 50.0 mg/kg/injection, schedule: Q01DX009 (ip), vehicle: saline
[22] = dose: 100.0 mg/kg/injection, schedule: Q01DX009 (ip), vehicle: saline with Tween-80
[23] = dose: 200.0 mg/kg/injection, schedule: Q01DX009 (ip), vehicle: saline with Tween-80
[24] = dose: 100.0 mg/kg/injection, schedule: Q01DX001 (ip), vehicle: saline
[25] = dose: 200.0 mg/kg/injection, schedule: Q01DX001 (ip), vehicle: saline
[26] = dose: 400.0 mg/kg/injection, schedule: Q01DX001 (ip), vehicle: saline

For `O=C(O)COc1ccc(F)cc1Cl`, the T/C [1] was 93 % of control, the T/C [2] was 96 % of control and the T/C [3] was 96 % of control. The T/C [4] was 98 % of control and the T/C [5] was 94 % of control.
In the case of `ClCCN(CCCl)c1ccc(C=Nc2cc(Cl)ccc2-n2ccnc2)c(Cl)c1`, the T/C [6] is reported as 98 % of control, the T/C [7] is reported as 95 % of control and the T/C [8] is reported as 98 % of control.
For `COn1c(CC(=O)C(=O)O)cccc1=O`, the T/C [9] was 102 % of control, the T/C [10] was 97 % of control and the T/C [11] was 94 % of control.
In the case of `CC(=O)N(C)c1ccc(NC(=O)CCl)cc1`, the T/C [1] is reported as 109 % of control and the T/C [3] is reported as 116 % of control.
In the case of `O=c1cc(CO)[nH]nc1CO`, the T/C [12] is reported as 97 % of control, the T/C [9] is reported as 101 % of control and the T/C [13] is reported as 97 % of control. The T/C [10] was 106 % of control, the T/C [14] was 97 % of control and the T/C [11] was 103 % of control.
In the case of `CCC(CO)NC1CCCCC1` (centres undefined), the T/C (dose: 75.0 mg/kg/injection, schedule: Q01DX001 (ip), vehicle: carboxymethylcellulose (CMC)) is reported as 88 % of control.
With `O=C1NC2CCC1c1ccccc12` (centres undefined) the T/C (dose: 50.0 mg/kg/injection, schedule: Q01DX001 (ip), vehicle: carboxymethylcellulose (CMC)) was 110 % of control, the T/C [15] was 105 % of control and the T/C [16] was 108 % of control.
In the case of `CCCCC(CC)COC(OCC(CC)CCCC)C(OCC(CC)CCCC)OCC(CC)CCCC` (centres undefined), the T/C [12] is reported as 101 % of control, the T/C [17] is reported as 98 % of control and the T/C [13] is reported as 101 % of control. For the same molecule, the T/C [18] was 94 % of control, the T/C [14] was 113 % of control and the T/C [19] was 91 % of control.
In the case of `CC(C)(CS(C)(=O)=O)NC(=O)NCCCl`, the T/C (dose: 100.0 mg/kg/injection, schedule: Q04DX002 (ip), vehicle: saline) is reported as 103 % of control, the T/C (dose: 200.0 mg/kg/injection, schedule: Q04DX002 (ip), vehicle: saline) is reported as 92 % of control and the T/C (dose: 400.0 mg/kg/injection, schedule: Q04DX002 (ip), vehicle: saline) is reported as 103 % of control.
In the case of `Cc1ccc(NC(=O)COc2ccc(Cl)cc2)c([N+](=O)[O-])c1`, the T/C [1] is reported as 101 % of control, the T/C [2] is reported as 88 % of control and the T/C [3] is reported as 101 % of control. The T/C [4] was 90 % of control, the T/C [20] was 91 % of control and the T/C [5] was 88 % of control.
For `Cc1ccc2c(c1)P(O)(=S)c1cc(Cl)ccc1O2` (centres undefined), the T/C (dose: 25.0 mg/kg/injection, schedule: Q01DX009 (ip), vehicle: saline) was 102 % of control, the T/C [21] was 108 % of control and the T/C [12] was 108 % of control. The T/C [13] was 108 % of control.
In the case of `COc1ncnc2c1ncn2C1OC(CF)C(O)C1O` (centres undefined), the T/C (dose: 100.0 mg/kg/injection, schedule: Q01DX005 (ip), vehicle: saline) is reported as 101 % of control and the T/C (dose: 200.0 mg/kg/injection, schedule: Q01DX005 (ip), vehicle: saline) is reported as 103 % of control.
With `C[C@@H]1CCC[C@@H](NC(=O)N(CCCl)N=O)C1` the T/C (dose: 6.7 mg/kg/injection, schedule: Q01DX001 (ip), vehicle: saline with Tween-80) was 108 % of control, the T/C (dose: 10.0 mg/kg/injection, schedule: Q01DX001 (ip), vehicle: saline with Tween-80) was 113 % of control and the T/C (dose: 15.0 mg/kg/injection, schedule: Q01DX001 (ip), vehicle: saline with Tween-80) was 124 % of control. The T/C (dose: 18.7 mg/kg/injection, schedule: Q01DX009 (ip), vehicle: Klucel (hydroxypropylcellulose) (HPC)) was 188 % of control, the T/C (dose: 34.0 mg/kg/injection, schedule: Q01DX001 (ip), vehicle: saline with Tween-80) was 166 % of control and the T/C (dose: 37.5 mg/kg/injection, schedule: Q01DX009 (ip), vehicle: Klucel (hydroxypropylcellulose) (HPC)) was 328 % of control. For the same molecule, the T/C (dose: 50.0 mg/kg/injection, schedule: Q01DX001 (ip), vehicle: saline with Tween-80) was 293 % of control, the T/C (dose: 75.0 mg/kg/injection, schedule: Q01DX001 (ip), vehicle: saline with Tween-80) was 484 % of control and the T/C (dose: 75.0 mg/kg/injection, schedule: Q01DX009 (ip), vehicle: Klucel (hydroxypropylcellulose) (HPC)) was 198 % of control. For the same molecule, the T/C (dose: 112.0 mg/kg/injection, schedule: Q01DX001 (ip), vehicle: saline with Tween-80) was 444 % of control, the T/C (dose: 150.0 mg/kg/injection, schedule: Q01DX009 (ip), vehicle: Klucel (hydroxypropylcellulose) (HPC)) was 106 % of control and the T/C (dose: 168.0 mg/kg/injection, schedule: Q01DX001 (ip), vehicle: saline with Tween-80) was 434 % of control.
For `Cc1ccc(N=Nc2ccc(C)cc2NC(=O)Nc2cccc(F)c2)cc1`, the T/C [22] was 90 % of control, the T/C [23] was 90 % of control and the T/C (dose: 400.0 mg/kg/injection, schedule: Q01DX009 (ip), vehicle: saline with Tween-80) was 98 % of control.
`COc1ccc(N=Nc2nccs2)c(O)c1` was tested, and the T/C (dose: 50.0 mg/kg/injection, schedule: Q01DX009 (ip), vehicle: saline with Tween-80) was 102 % of control, the T/C [22] was 98 % of control and the T/C [23] was 109 % of control.
For `CCOC(=O)CNC(c1ccccc1)(c1ccccc1)c1ccccc1`, the T/C [1] was 106 % of control, the T/C [2] was 91 % of control and the T/C [3] was 90 % of control. The T/C [4] was 91 % of control, the T/C [20] was 90 % of control and the T/C [5] was 98 % of control.
With `O=C(Nc1c(Cl)cc2c(c1Cl)Cc1cc([N+](=O)[O-])ccc1-2)C(Cl)Cl` the T/C [15] was 98 % of control, the T/C [16] was 102 % of control and the T/C (dose: 400.0 mg/kg/injection, schedule: Q01DX001 (ip), vehicle: carboxymethylcellulose (CMC)) was 98 % of control.
With `O=C(Nc1ccc(Cl)cc1)NC1CCCCC1` the T/C [2] was 92 % of control, the T/C [4] was 92 % of control and the T/C [5] was 92 % of control.
In the case of `CCC(C)C(C=NCC(CCN1CCOCC1)(c1ccc2ccccc2c1)C(C)CC)(CCN1CCOCC1)c1ccc2ccccc2c1` (centres undefined), the T/C (dose: 50.0 mg/kg/injection, schedule: Q04DX002 (ip), vehicle: Klucel (hydroxypropylcellulose) (HPC)) is reported as 100 % of control, the T/C [6] is reported as 92 % of control and the T/C [7] is reported as 92 % of control.
In the case of `N#Cc1ccc[n+](CCCl)c1`, the T/C (dose: 30.0 mg/kg/injection, schedule: Q01DX Z (ip), vehicle: saline) is reported as 95 % of control.
For `CCCCCC(C)n1c(C)cc(=O)n1C(C)CCCCC` (centres undefined), the T/C (dose: 75.0 mg/kg/injection, schedule: Q01DX001 (ip), vehicle: other) was 92 % of control and the T/C (dose: 150.0 mg/kg/injection, schedule: Q01DX001 (ip), vehicle: other) was 97 % of control.
For `N#C/C(=C\C1CCCC([N+](=O)[O-])C1)C1CCC([N+](=O)[O-])CC1` (centres undefined), the T/C [6] was 122 % of control, the T/C [7] was 100 % of control and the T/C [8] was 100 % of control.
For `Cc1cc(=O)n(C)c[n+]1C`, the T/C (dose: 50.0 mg/kg/injection, schedule: Q01DX001 (ip), vehicle: saline) was 93 % of control, the T/C [21] was 106 % of control and the T/C [24] was 106 % of control. For the same molecule, the T/C [12] was 109 % of control, the T/C [25] was 100 % of control and the T/C [13] was 113 % of control. For the same molecule, the T/C [26] was 96 % of control.
With `O=c1[nH]cccc1CC(O)(c1ccccc1)c1ccccc1` the T/C [24] was 101 % of control, the T/C [25] was 103 % of control and the T/C [26] was 100 % of control.
With `CCCNc1ccc(C2=NCCCN2)cc1` the T/C [24] was 102 % of control.
`OC(C#CC(O)c1ccccc1)c1ccccc1` (centres undefined) was tested, and the T/C [12] was 86 % of control, the T/C [17] was 97 % of control and the T/C [13] was 108 % of control. The T/C [18] was 94 % of control and the T/C [19] was 87 % of control.
`O=S(=O)(Nc1ccccc1)c1ccc2c(Cl)cc(S(=O)(=O)Nc3ccccc3)cc2c1` was tested, and the T/C (dose: 100.0 mg/kg/injection, schedule: Q01DX001 (ip), vehicle: saline with Tween-80) was 93 % of control, the T/C (dose: 200.0 mg/kg/injection, schedule: Q01DX001 (ip), vehicle: saline with Tween-80) was 93 % of control and the T/C (dose: 400.0 mg/kg/injection, schedule: Q01DX001 (ip), vehicle: saline with Tween-80) was 91 % of control.
With `CN(C)C(=O)Sc1c(Cl)cc(Cl)cc1S(=O)(=O)F` the T/C [1] was 97 % of control, the T/C [3] was 100 % of control and the T/C [20] was 97 % of control.
`Cc1cnc(Cl)nc1N1CC1` was tested, and the T/C (dose: 1.0 mg/kg/injection, schedule: Q01DX Z (ip), vehicle: methylcellulose (MC)) was 91 % of control.
With `O=C(Nc1ccc(F)c([N+](=O)[O-])c1)NC(Cc1ccccc1)c1ccccc1` (centres undefined) the T/C [1] was 98 % of control, the T/C [3] was 101 % of control and the T/C [20] was 104 % of control.
